{"source": "PubChem BioAssay AID602267", "about": "(Broad Institute, 2012)", "note": "The source made the active and inactive calls.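 The calls were made as follows: active = signal falls with dose and the fitted half-maximal concentration is at or below twice the top valid tested dose; inconclusive = flat curve with 30 to 70% inhibition, or poor fit; inactive = wrong direction, flat within 30%, or potency beyond limit.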", "data": [{"molecular_target": "Golgi-associated PDZ and coiled-coil motif-containing protein (Homo sapiens) (UniProt Q9HD26)", "test": "blockers of CAL PDZ ligand groove binding – biochemical, fluorescence polarization, untagged CAL PDZ, cherry-pick, dose response (AID 602267)", "conditions": "purified CAL PDZ, TMR-peptide fluorescence polarization, 1 h; at 16 µM (top of the series)", "values": [{"smiles": "c1ccc(C2Nc3ccccc3Oc3ccccc32)cc1", "note": "(centres undefined)", "activity change, negative = inhibition": "inactive"}, {"smiles": "COc1ccc(N2CCN(C(=O)c3cccc4nc(C)oc34)CC2)cc1", "activity change, negative = inhibition": "inactive"}, {"smiles": "COc1ccc2c(c1)c(=Cc1ccc(N(C)C)cc1)c1cc(-c3ccccc3)[n+](C)n12", "activity change, negative = inhibition": "inactive"}, {"smiles": "COCCCNC(=O)c1c[nH]c2ccc(S(=O)(=O)N3CCC(C)CC3)cc2c1=O", "activity change, negative = inhibition": "inactive"}]}, {"molecular_target": "Golgi-associated PDZ and coiled-coil motif-containing protein (Homo sapiens) (UniProt Q9HD26)", "test": "blockers of CAL PDZ ligand groove binding – biochemical, fluorescence polarization, untagged CAL PDZ, cherry-pick, dose response (AID 602267)", "conditions": "purified CAL PDZ, TMR-peptide fluorescence polarization, 1 h; at 50 µM (top of the series)", "values": [{"smiles": "CCCOc1ccc(S(=O)(=O)Nc2ccccn2)c2ccccc12", "activity change, negative = inhibition": "inactive"}, {"smiles": "CC(=O)Nc1sc2c(c1C(c1ccccn1)N1CCN(C)CC1)CCCC2", "note": "(centres undefined)", "activity change, negative = inhibition": "inactive"}, {"smiles": "COc1cc(Cl)c(CN2CCCC(CO)(Cc3cccc(Cl)c3)C2)cc1OC", "note": "(centres undefined)", "activity change, negative = inhibition": "inactive"}, {"smiles": "Cc1cc(C)c(OCC(=O)OC(C)C(=O)NC2CC2)c(C)c1", "note": "(centres undefined)", "activity change, negative = inhibition": "inactive"}, {"smiles": "C/C(=N/N1CCN(c2ccccn2)CC1)c1ccc([N+](=O)[O-])cc1", "activity change, negative = inhibition": "inactive"}, {"smiles": "CC1CCN(CCCNC(=O)c2ccc3c(=O)n(Cc4ccc(Cl)cc4)c(=S)[nH]c3c2)CC1", "activity change, negative = inhibition": "inactive"}, {"smiles": "Cc1ccc(F)cc1N=Cc1c(O)c2ccccc2oc1=O", "activity change, negative = inhibition": "inactive"}, {"smiles": "CC(=Nc1ccccc1O)c1sc2ccccc2c1O", "activity change, negative = inhibition": "inactive"}, {"smiles": "Cc1ccc2nc(NCc3ccc(F)cc3)c3nncn3c2c1", "activity change, negative = inhibition": "inactive"}, {"smiles": "CCC(=O)Nc1ccc(S(=O)(=O)NCc2ccco2)cc1", "activity change, negative = inhibition": "inactive"}, {"smiles": "C=CCOC(=O)C1=C(C)Nc2nc3ccccc3n2C1c1ccncc1", "note": "(centres undefined)", "activity change, negative = inhibition": "inactive"}, {"smiles": "Nc1nc2ccccc2cc1S(=O)(=O)c1ccccc1", "activity change, negative = inhibition": "inactive"}, {"smiles": "COc1cc(Br)c(C(=O)c2nccc3cc(OC)c(OC)cc23)cc1OC", "activity change, negative = inhibition": "inactive"}, {"smiles": "Cc1cccc(N=Nc2c(O)[nH]c3ccc(F)cc23)c1", "activity change, negative = inhibition": "inactive"}, {"smiles": "O=C(NCCCn1ccnc1)c1ccccc1F", "activity change, negative = inhibition": "inactive"}, {"smiles": "COc1ccc(Oc2nc3c(c(=O)n(C)c(=O)n3C)n2C)cc1", "activity change, negative = inhibition": "inactive"}, {"smiles": "CCN(CC)Cc1c(O)ccc2c1O/C(=C\\C=C\\c1ccccc1)C2=O", "activity change, negative = inhibition": "inactive"}, {"smiles": "COc1ccc(CC(=O)NCC2CCCN(Cc3cccc(SC)c3)C2)cc1", "note": "(centres undefined)", "activity change, negative = inhibition": "inactive"}, {"smiles": "Cc1cc(C)c2nc(-c3ccncc3)cc(C(=O)N3CCN(Cc4ccccc4Cl)CC3)c2c1", "activity change, negative = inhibition": "inactive"}, {"smiles": "COCc1cc(C)nc(SCc2ccccc2)c1C#N", "activity change, negative = inhibition": "inactive"}, {"smiles": "CCCCOc1ccc(C(=O)N2CCNC(=O)C2CC(=O)OC(C)C)cc1", "note": "(centres undefined)", "activity change, negative = inhibition": "inactive"}, {"smiles": "O=C(c1cc(Br)ccc1Cl)N1CCN(c2ccccn2)CC1", "activity change, negative = inhibition": "inactive"}, {"smiles": "C=CCN1C(=O)/C(=C/c2ccsc2)SC1=S", "activity change, negative = inhibition": "inactive"}, {"smiles": "O=C(c1ccc([N+](=O)[O-])cc1)N1CCC(Cc2ccccc2)CC1", "activity change, negative = inhibition": "inactive"}, {"smiles": "O=C(NCc1ccccn1)Nc1ccc(F)c(Cl)c1", "activity change, negative = inhibition": "inactive"}, {"smiles": "Cn1c(=O)c2c(nc(SCC(=O)NCC3CCCO3)n2Cc2ccc(F)cc2)n(C)c1=O", "note": "(centres undefined)", "activity change, negative = inhibition": "inactive"}, {"smiles": "CCOc1ccc(NC(=O)c2nsc(Cl)c2Cl)cc1", "activity change, negative = inhibition": "inactive"}, {"smiles": "CCN1C(=O)CS/C1=N\\S(=O)(=O)c1ccc(Cl)cc1", "activity change, negative = inhibition": "inactive"}, {"smiles": "O=C(c1ccccc1)c1c2c(cc3sc4ccccc4[n+]13)-c1cccc3cccc-2c13", "activity change, negative = inhibition": "inactive"}, {"smiles": "CN(C(=O)CC1C(=O)NCCN1CC(c1ccccc1)c1ccccc1)C(C1CC1)C1CC1", "note": "(centres undefined)", "activity change, negative = inhibition": "inactive"}, {"smiles": "COCCCNC(=O)c1cc(S(=O)(=O)N2CCOCC2)ccc1SCc1cccc(OC)c1OC", "activity change, negative = inhibition": "inactive"}, {"smiles": "COc1ccc(/C=N/Nc2cc(C)nc3ccc(OC)cc23)c(OC)c1", "activity change, negative = inhibition": "inactive"}, {"smiles": "O=P(O)(COc1ccccc1)COc1ccccc1", "activity change, negative = inhibition": "inactive"}, {"smiles": "O=C(c1ccccc1)C(CCc1ccccn1)CCc1ccccn1", "activity change, negative = inhibition": "inactive"}, {"smiles": "O=C1c2ccccc2C(=O)N1CSc1nnnn1-c1ccccc1", "activity change, negative = inhibition": "inactive"}, {"smiles": "COc1cccc(N2CCN(C(=O)c3ccc(-c4ccccc4)cc3)CC2)c1", "activity change, negative = inhibition": "inactive"}, {"smiles": "Cc1ccccc1-n1c(C)c(C#N)c(=O)c(-[n+]2ccccc2)c1[S-]", "activity change, negative = inhibition": "inactive"}, {"smiles": "CCN(CC)S(=O)(=O)c1cc(C(=O)Oc2ccccc2OC)ccc1OC", "activity change, negative = inhibition": "inactive"}, {"smiles": "O=C(NNC(=S)NC(=O)c1ccc(Br)cc1)c1ccc([N+](=O)[O-])cc1", "activity change, negative = inhibition": "inactive"}, {"smiles": "CC(C)=Cc1oc2ccc([N+](=O)[O-])cc2c1N1CCOCC1", "activity change, negative = inhibition": "inactive"}, {"smiles": "CN(C)c1ccc(C=c2c3ccccc3n3c2cc(-c2ccccc2)[n+]3C)cc1", "activity change, negative = inhibition": "inactive"}, {"smiles": "N=c1c(S(=O)(=O)c2ccc(Cl)cc2)cc2c(=O)n3ccccc3nc2n1C1CCCCC1", "activity change, negative = inhibition": "inactive"}, {"smiles": "O=C(CN1C(=O)NC2(CCCC2)C1=O)Nc1ccc(F)c(F)c1F", "activity change, negative = inhibition": "inactive"}, {"smiles": "N/C(=N\\OC(=O)Cc1ccccc1[N+](=O)[O-])c1cccnc1", "activity change, negative = inhibition": "inactive"}, {"smiles": "CC(=O)N1CCN(c2ccc(NC(=O)c3cccc(Cl)c3Cl)cc2)CC1", "activity change, negative = inhibition": "inactive"}, {"smiles": "O=C1C=C(c2ccccc2)C(c2ccccc2)C1", "note": "(centres undefined)", "activity change, negative = inhibition": "inactive"}, {"smiles": "CSc1ccccc1NC(=O)C1CC(c2c(F)cccc2Cl)=NO1", "note": "(centres undefined)", "activity change, negative = inhibition": "inactive"}, {"smiles": "CCOc1ccccc1CN1CCC(n2nccc2NC(=O)C2CCCC2)CC1", "activity change, negative = inhibition": "inactive"}, {"smiles": "O=C(O)c1ccc(S(=O)(=O)c2ccc3c(c2)C(=O)N(c2ccccc2[N+](=O)[O-])C3=O)cc1", "activity change, negative = inhibition": "inactive"}, {"smiles": "COc1ccc(CC(=O)N2CCC(CCC(=O)Nc3ccccc3)CC2)cc1", "activity change, negative = inhibition": "inactive"}, {"smiles": "COc1ccc(C(=O)c2ccc(C)cc2)c(OC)c1OC", "activity change, negative = inhibition": "inactive"}, {"smiles": "CN(C)CCNC(=O)COc1cccc2c1OC(C)(C)C2", "activity change, negative = inhibition": "inactive"}, {"smiles": "CCOC(=O)/C(N=Nc1ccc2c(c1)OCO2)=C(\\C)O", "activity change, negative = inhibition": "inactive"}, {"smiles": "N#C/C(=C\\c1c[nH]c2ccccc12)C(=O)NC1CC1", "activity change, negative = inhibition": "inactive"}, {"smiles": "CC1CCCCC1NCC(=O)NCc1ccc(F)cc1", "note": "(centres undefined)", "activity change, negative = inhibition": "inactive"}, {"smiles": "Cc1cc(NC(=O)Cc2ccc(Br)cc2)no1", "activity change, negative = inhibition": "inactive"}, {"smiles": "Cc1ccc(NC(=O)CN(C)CC(=O)Nc2cccc(F)c2)cc1S(=O)(=O)N1CCCCCC1", "activity change, negative = inhibition": "inactive"}, {"smiles": "CCCCNC(=S)NNc1c(Cl)cc(Cl)cc1Cl", "activity change, negative = inhibition": "inactive"}, {"smiles": "CC(C)CNC(=O)CC1Nc2ccccc2NC1=O", "note": "(centres undefined)", "activity change, negative = inhibition": "inactive"}, {"smiles": "COc1ccc(Nc2cccccc2=O)cc1", "activity change, negative = inhibition": "inactive"}, {"smiles": "CN(C)c1ccc(P(=O)(OC2CCCCC2)C(O)c2cccnc2)cc1", "note": "(centres undefined)", "activity change, negative = inhibition": "inactive"}, {"smiles": "O=C(COC(=O)c1ccccc1C(=O)N1CCN(c2ccccc2)CC1)NCc1ccccc1", "activity change, negative = inhibition": "inactive"}, {"smiles": "Cc1cc(C(=O)Nc2ccccc2Cl)c2ccccc2n1", "activity change, negative = inhibition": "inactive"}, {"smiles": "COCCN(Cc1nc(C(c2ccccc2)c2ccccc2)no1)C(C)C", "activity change, negative = inhibition": "inactive"}, {"smiles": "c1ccc(C(Nc2cccnc2)c2ccccc2)cc1", "activity change, negative = inhibition": "inactive"}, {"smiles": "O=C(c1ccccc1Cl)N(Cc1ccc(Cl)c(Cl)c1)N1C(=O)CCCC1=O", "activity change, negative = inhibition": "inactive"}, {"smiles": "Cc1ccc(CN(C(=O)c2ccco2)C(C(=O)NC2CCCC2)c2cccnc2)cc1", "note": "(centres undefined)", "activity change, negative = inhibition": "inactive"}, {"smiles": "O=C(NCCN1C(=O)S/C(=C\\c2ccc(Cl)c(Cl)c2)C1=O)C1COc2ccccc2O1", "note": "(centres undefined)", "activity change, negative = inhibition": "inactive"}, {"smiles": "O=C(CN(Cc1ccccc1)S(=O)(=O)c1ccc(F)cc1)NCCC1=CCCCC1", "activity change, negative = inhibition": "inactive"}, {"smiles": "CN(C)c1ccc(C(=O)OCC(=O)NC2CCCCCC2)cc1", "activity change, negative = inhibition": "inactive"}, {"smiles": "Cn1c(CNC(=O)OC(C)(C)C)n[nH]c1=S", "activity change, negative = inhibition": "inactive"}, {"smiles": "C[n+]1ccc(C(=O)Nc2ccccc2Cl)cc1", "activity change, negative = inhibition": "inactive"}, {"smiles": "Cc1sc2ncn(CC(=O)NCCCC(=O)N3CCN(Cc4ccc5c(c4)OCO5)CC3)c(=O)c2c1C", "activity change, negative = inhibition": "inactive"}, {"smiles": "COc1cc(C)cc(CN2CC=C(c3ccccc3)CC2)c1O", "activity change, negative = inhibition": "inactive"}, {"smiles": "O=C(NCc1ccccn1)c1ccc(NS(=O)(=O)c2ccccc2)cc1", "activity change, negative = inhibition": "inactive"}, {"smiles": "Cc1ccccc1CN(C)C(C)C(=O)Nc1ccccc1F", "note": "(centres undefined)", "activity change, negative = inhibition": "inactive"}, {"smiles": "COc1ccccc1C(=O)Nc1ccc2c(c1)CN(C(=O)CSC)CC2", "activity change, negative = inhibition": "inactive"}, {"smiles": "Cc1cccc(C(=O)Nc2nnc(COc3ccccc3)s2)c1", "activity change, negative = inhibition": "inactive"}, {"smiles": "O=C(Nc1cc(Cl)ccc1N1CCOCC1)c1ccc2c(c1)OCCO2", "activity change, negative = inhibition": "inactive"}, {"smiles": "COc1ccc2ccn(S(=O)(=O)c3ccccc3)c2c1", "activity change, negative = inhibition": "inactive"}, {"smiles": "CN(Cc1nccn1C)C(=O)c1cc(COc2ccc3ncccc3c2)on1", "activity change, negative = inhibition": "inactive"}, {"smiles": "C=CCNC(=S)Nc1ccc(C)c(S(=O)(=O)N2CCCCC2)c1", "activity change, negative = inhibition": "inactive"}, {"smiles": "Cc1cc(C)nc(CCNC(=O)c2cc(COc3c(C)cccc3C)on2)n1", "activity change, negative = inhibition": "inactive"}, {"smiles": "CC(C)Oc1ccc(C(=O)Nc2ccc(S(=O)(=O)N3CCN(C)CC3)cc2)cc1", "activity change, negative = inhibition": "inactive"}, {"smiles": "CCCSC1=N/C(=C\\c2ccc([N+](=O)[O-])o2)C(=O)S1", "activity change, negative = inhibition": "inactive"}, {"smiles": "Cc1ccc(S(=O)(=O)N2CCN(C(=O)N(C)C)CC2)cc1", "activity change, negative = inhibition": "inactive"}, {"smiles": "COc1ccc(NC(=O)c2cnn(-c3ccccc3)c2C)c(OC)c1", "activity change, negative = inhibition": "inactive"}, {"smiles": "Cc1ccc2nc(NC(=O)COC(=O)c3ccncc3)sc2c1", "activity change, negative = inhibition": "inactive"}, {"smiles": "CC(C)OCCCNC(=O)C1CC(=O)N(CCc2ccc(F)cc2)C1", "note": "(centres undefined)", "activity change, negative = inhibition": "inactive"}, {"smiles": "Cc1sc(NC(=O)c2ccco2)c(C(Nc2ccccn2)c2ccccc2)c1C", "note": "(centres undefined)", "activity change, negative = inhibition": "inactive"}]}]}
